Data: patent US5204352A, “Compounds exhibiting anti-parasitic activity and a method for their use” (The United States of America as represented by the …, priority 1987, dated 1993)
“And” between values parts separate entries of the source, which are not always exact repeats. Equal entries are not always repeated.

Tested on: Trypanosoma rhodesiense
Assay: In vivo trypanocidal activity in infected mice (protocol based on Rane et al.)
Set-up: Activity at dosage, value in parentheses (increase in survival): unit not given here
Conditions: for Activity at dosage (C = Cures) / Activity at dosage, value in parentheses (increase in survival): peritoneal (Table 2)
Method: The compounds of the present invention were evaluated biologically in vivo with groups of 5 mice at various dose levels. Unless otherwise indicated, the data are for subcutaneous administration. Dose levels marked with an asterisk are for peritoneal administration in a HEC+T medium. In addition, Table 2 present results of peritoneal administration with substituted quanylhydrazones. The biological evaluation was done according to a standard protocol based on the method described by Rane et al., Amer. J. Trop. Med Hyg. 25:395 (1976). […]

[1] = 424* mg/kg, peritoneal in HEC+T medium (Table I)
[2] = 13.3* mg/kg, peritoneal in HEC+T medium (Table I)
[3] = 26* mg/kg, peritoneal in HEC+T medium (Table I)
[4] = 53* mg/kg, peritoneal in HEC+T medium (Table I)
[5] = 106* mg/kg, peritoneal in HEC+T medium (Table I)
[6] = 212* mg/kg, peritoneal in HEC+T medium (Table I)
[7] = 6.6* mg/kg, peritoneal in HEC+T medium (Table I)
[8] = 13* mg/kg, peritoneal in HEC+T medium (Table I)

## C[n+]1c(-c2ccc(C=NNc3nccs3)cc2)cn2ccccc21 [BK50302]
0.2 mg/kg, subcutaneous
  Increase in survival: 2.0 days
  Trypanocidal activity, cures: 3/5
0.4 mg/kg, subcutaneous
  Trypanocidal activity, cures: 5/5
0.8 mg/kg, subcutaneous
  Increase in survival: 15.0 days
  Trypanocidal activity, cures: 4/5
106 mg/kg
  Activity at dosage (C = Cures): INAC
212 mg/kg
  Activity at dosage (C = Cures): INAC
424 mg/kg
  Activity at dosage (C = Cures): INAC

## C[n+]1c(-c2ccc(C=NNC(N)=S)cc2)cn2ccccc21 [BJ90721]
26 mg/kg, subcutaneous
  Increase in survival: 4.4 days
53 mg/kg, subcutaneous
  Increase in survival: 7.8 days
  Trypanocidal activity, cures: 1/5
106 mg/kg, subcutaneous
  Increase in survival: 7.5 days
  Trypanocidal activity, cures: 3/5
212 mg/kg, subcutaneous
  Increase in survival: 18.0 days
  Trypanocidal activity, cures: 4/5
424 mg/kg, subcutaneous
  Trypanocidal activity, cures: 5/5
[1]
  Increase in survival: 1.9 days
  Trypanocidal activity, cures: 1/10

## C[n+]1c(-c2ccc(C(N)=NO)cc2)cn2cc(Cl)ccc21 [BK46193]
106 mg/kg, subcutaneous
  Increase in survival: 5.2 days
  Trypanocidal activity, cures: 1/5
212 mg/kg, subcutaneous
  Increase in survival: 2.9 days
  Trypanocidal activity, cures: 4/5

## C=CC[n+]1c(-c2ccc(NC(C)=O)cc2)cn2cc(C)ccc21 [BK02557]
[1]
  Increase in survival: 3.8 days
  Trypanocidal activity, cures: 2/10

## C[n+]1c(-c2ccc(C=NNC(N)=O)cc2)cn2ccsc21 [BK21918]
26.5 mg/kg, subcutaneous
  Increase in survival: 4.8 days
53 mg/kg, subcutaneous
  Increase in survival: 4.5 days

## C[n+]1c(-c2ccc(C=NNC3=NCCN3)cc2)cn2ccccc21 [BK50311]
0.42 mg/kg, subcutaneous
  Increase in survival: 6.6 days
  Trypanocidal activity, cures: 2/5
0.8 mg/kg
  Activity at dosage (C = Cures): INAC
0.83 mg/kg, subcutaneous
  Increase in survival: 1.5 days
  Trypanocidal activity, cures: 8/10
1.66 mg/kg, subcutaneous
  Increase in survival: 22.0 days
  Trypanocidal activity, cures: 9/10
1.7 mg/kg
  Activity at dosage, value in parentheses (increase in survival): 1.0
3.3 mg/kg
  Activity at dosage, value in parentheses (increase in survival): 1.6
3.3 mg/kg, subcutaneous
  Trypanocidal activity, cures: 5/5
6.6 mg/kg, subcutaneous
  Increase in survival: 10.0 days
  Trypanocidal activity, cures: 3/5
6.7 mg/kg
  Activity at dosage, value in parentheses (increase in survival): 7.7
13 mg/kg
  Activity at dosage, value in parentheses (increase in survival): 9.0
13.3 mg/kg, subcutaneous
  Trypanocidal activity, cures: 10/10
26 mg/kg
  Activity at dosage, value in parentheses (increase in survival): 13.5
[2]
  Increase in survival: 9.0 days
  Trypanocidal activity, cures: 9/10
[3]
  Increase in survival: 13.5 days
  Trypanocidal activity, cures: 13/15
[4]
  Trypanocidal activity, cures: 5/5
[5]
  Trypanocidal activity, cures: 10/10
[6]
  Trypanocidal activity, cures: 5/5
[1]
  Trypanocidal activity, cures: 0/10

## CN(C)C(=N)NN=Cc1ccc(-c2cn3ccccc3[n+]2C)cc1 [BK47976]
6.66 mg/kg, subcutaneous
  Trypanocidal activity, cures: 5/5

## Cc1ccc2n(c1)cc(-c1ccc(C=NNC(=N)N)cc1)[n+]2C [BK13078]
0.21 mg/kg, subcutaneous
  Increase in survival: 5.3 days
  Trypanocidal activity, cures: 2/5
0.42 mg/kg, subcutaneous
  Increase in survival: 7.0 days
  Trypanocidal activity, cures: 4/5
0.8 mg/kg
  Activity at dosage (C = Cures): INAC
0.83 mg/kg, subcutaneous
  Trypanocidal activity, cures: 10/10
1.66 mg/kg, subcutaneous
  Increase in survival: 11.0 days
  Trypanocidal activity, cures: 9/10
1.7 mg/kg
  Activity at dosage (C = Cures): INAC
3.3 mg/kg
  Activity at dosage, value in parentheses (increase in survival): 1.0
3.3 mg/kg, subcutaneous
  Increase in survival: 1.0 days
3.33 mg/kg, subcutaneous
  Trypanocidal activity, cures: 5/5
6.65 mg/kg, subcutaneous
  Trypanocidal activity, cures: 5/5
6.7 mg/kg
  Activity at dosage, value in parentheses (increase in survival): 7.0
13.3 mg/kg, subcutaneous
  Trypanocidal activity, cures: 10/10
26 mg/kg
  Activity at dosage, value in parentheses (increase in survival): 10.6
26.5 mg/kg, subcutaneous
  Trypanocidal activity, cures: 15/15
424 mg/kg
  Activity at dosage, value in parentheses (increase in survival): 12.5
[7]
  Increase in survival: 7.0 days
  Trypanocidal activity, cures: 3/5
[8]
  Trypanocidal activity, cures: 10/10
[3]
  Trypanocidal activity, cures: 13/15
[4]
  Trypanocidal activity, cures: 10/10
[5]
  Trypanocidal activity, cures: 10/10
[6]
  Trypanocidal activity, cures: 5/5

## CC(=O)Nc1ccc(-c2cn3ccccc3[n+]2C)cc1 [BJ36718]
53 mg/kg, subcutaneous
  Increase in survival: 8.0 days
  Trypanocidal activity, cures: 4/5
106 mg/kg, subcutaneous
  Increase in survival: 4.4 days
212 mg/kg, subcutaneous
  Trypanocidal activity, cures: 3/5 and 4/5
[5]
  Increase in survival: 7.0 days
  Trypanocidal activity, cures: 7/10
[1]
  Increase in survival: 11.0 days
  Trypanocidal activity, cures: 8/10

## C[n+]1c(-c2ccc(C=NNC(=N)N3CCOCC3)cc2)cn2ccccc21 [BK51890]
0.8 mg/kg
  Activity at dosage, value in parentheses (increase in survival): 1.7
1.7 mg/kg
  Activity at dosage, value in parentheses (increase in survival): 10.9
26 mg/kg
  Activity at dosage, value in parentheses (increase in survival): 5.9
1.66* mg/kg, peritoneal in HEC+T medium (Table I)
  Increase in survival: 10.9 days
3.3* mg/kg, peritoneal in HEC+T medium (Table I)
  Trypanocidal activity, cures: 5/5
[7]
  Trypanocidal activity, cures: 5/5
[8]
  Trypanocidal activity, cures: 5/5
[3]
  Trypanocidal activity, cures: 9/10
[5]
  Trypanocidal activity, cures: 5/5
[1]
  Trypanocidal activity, cures: 5/5

## C=CC[n+]1c(-c2ccc(C=NNC(=N)N)cc2)cn2ccccc21 [BK11770]
13.3 mg/kg, subcutaneous
  Trypanocidal activity, cures: 5/5

## CN=C(N)NN=Cc1ccc(-c2cn3ccccc3[n+]2C)cc1 [BK46200]
0.85-1.66 mg/kg, (M), subcutaneous
  Trypanocidal activity, cures: 5/5
3.33-6.65 mg/kg, (F), subcutaneous
  Trypanocidal activity, cures: 5/5

## C[n+]1cccc(COc2ccc(C=NNC(=N)N3CCCC3)cc2)c1 [BL10027]
0.8 mg/kg, subcutaneous
  Increase in survival: 5.2 days
  Trypanocidal activity, cures: 7/10
3.3 mg/kg, subcutaneous
  Trypanocidal activity, cures: 5/5
13 mg/kg, subcutaneous
  Trypanocidal activity, cures: 5/5

## C[n+]1ccc(COc2ccc(C=NNC3=NCCN3)cc2)cc1 [BL12129]
3.3 mg/kg, subcutaneous
  Increase in survival: 6.8 days
  Trypanocidal activity, cures: 1/5
13 mg/kg, subcutaneous
  Increase in survival: 5.0 days
  Trypanocidal activity, cures: 8/10

## Cc1ccc2n(c1)cc(-c1ccc(C(=N)N)cc1)[n+]2C [BK46166]
26.5 mg/kg, subcutaneous
  Increase in survival: 4.5 days
  Trypanocidal activity, cures: 2/5
53 mg/kg, subcutaneous
  Increase in survival: 1.6 days
  Trypanocidal activity, cures: 2/5
106 mg/kg, subcutaneous
  Increase in survival: 5.2 days
  Trypanocidal activity, cures: 2/5

## Cn1cc[n+](C)c1C=Cc1ccc(C=NNC2=NCCCN2)cc1 [BL21584]
6.6 mg/kg, subcutaneous
  Trypanocidal activity, cures: 5/5
13 mg/kg, subcutaneous
  Trypanocidal activity, cures: 10/10

## C[n+]1c(-c2ccc(-c3n[nH]c(N)n3)cc2)cn2ccsc21 [BK42720]
26.5 mg/kg, subcutaneous
  Trypanocidal activity, cures: 5/5

## C[n+]1c(-c2ccc(C(N)=NO)cc2)cn2ccccc21 [BJ84974]
13.3 mg/kg, subcutaneous
  Increase in survival: 3.1 days
26.5 mg/kg, subcutaneous
  Increase in survival: 1.6 days
  Trypanocidal activity, cures: 2/10
53 mg/kg, subcutaneous
  Trypanocidal activity, cures: 5/5
106 mg/kg, subcutaneous
  Increase in survival: 9.9 days
  Trypanocidal activity, cures: 9/10
212 mg/kg, subcutaneous
  Trypanocidal activity, cures: 5/5

## COC(=O)c1ccc2n(c1)cc(-c1ccc(NC(C)=O)cc1)[n+]2C [BJ90758]
106 mg/kg, subcutaneous
  Increase in survival: 4.2 days
424 mg/kg, subcutaneous
  Increase in survival: 4.2 days
  Trypanocidal activity, cures: 2/10

## C[n+]1c(-c2ccc(C(N)=S)cc2)cn2ccccc21 [BK11743]
6.65 mg/kg, subcutaneous
  Increase in survival: 2.7 days
  Trypanocidal activity, cures: 2/10
13.3 mg/kg, subcutaneous
  Increase in survival: 3.3 days
  Trypanocidal activity, cures: 1/10
26 mg/kg, subcutaneous
  Increase in survival: 4.0 days
  Trypanocidal activity, cures: 3/15
53 mg/kg, subcutaneous
  Trypanocidal activity, cures: 5/5
106 mg/kg, subcutaneous
  Increase in survival: 3.2 days
  Trypanocidal activity, cures: 5/10
212 mg/kg, subcutaneous
  Increase in survival: 17.0 days
  Trypanocidal activity, cures: 4/5

## C[n+]1c(COc2ccc(C(=N)N)cc2)cn2ccccc21 [BK65330]
13.3 mg/kg, subcutaneous
  Increase in survival: 12 days
  Trypanocidal activity, cures: 3/5

## C[n+]1c(-c2ccc(C(=N)N)cc2)cn2cc(C(=N)N)ccc21 [BK42748]
26.5 mg/kg, subcutaneous
  Increase in survival: 2.3 days
  Trypanocidal activity, cures: 2/5
53 mg/kg, subcutaneous
  Increase in survival: 3.0 days
  Trypanocidal activity, cures: 2/5

## C[n+]1c(C=Cc2ccc(C=NNC(=N)N3CCCC3)cc2)cn2ccccc21 [BL12165]
1.6 mg/kg, subcutaneous
  Increase in survival: 5.2 days
  Trypanocidal activity, cures: 6/10
3.3 mg/kg, subcutaneous
  Increase in survival: 12.3 days
  Trypanocidal activity, cures: 2/5
13 mg/kg, subcutaneous
  Trypanocidal activity, cures: 10/10
26 mg/kg, subcutaneous
  Trypanocidal activity, cures: 15/15

## C[n+]1c(-c2ccc(C=NO)cc2)cn2ccccc21 [BJ90712]
106 mg/kg, subcutaneous
  Increase in survival: 4.2 days
  Trypanocidal activity, cures: 2/5

## Cn1c(COc2ccc(C=NNC3=NCCN3)cc2)[n+](C)c2ccccc21 [BL10018]
0.4 mg/kg, subcutaneous
  Increase in survival: 6.8 days
  Trypanocidal activity, cures: 3/5
1.6 mg/kg, subcutaneous
  Trypanocidal activity, cures: 10/10
6.6 mg/kg, subcutaneous
  Trypanocidal activity, cures: 5/5

## CC(=O)Nc1ccc(-c2cn3ccc4ccccc4c3[n+]2C)cc1 [BJ83235]
53 mg/kg, subcutaneous
  Increase in survival: 1.7 days
  Trypanocidal activity, cures: 1/5
212 mg/kg, subcutaneous
  Increase in survival: 2.9 days
  Trypanocidal activity, cures: 4/5

## C[n+]1c(-c2ccc(C=NNc3ncn[nH]3)cc2)cn2ccsc21 [BK2403S]
6.65 mg/kg, subcutaneous
  Increase in survival: 5.0 days
  Trypanocidal activity, cures: 4/5
13.3 mg/kg, subcutaneous
  Increase in survival: 5.0 days
  Trypanocidal activity, cures: 6/10
26.5 mg/kg, subcutaneous
  Increase in survival: 7.3 days
  Trypanocidal activity, cures: 12/15
53 mg/kg, subcutaneous
  Increase in survival: 12.5 days
  Trypanocidal activity, cures: 3/5
106 mg/kg, subcutaneous
  Increase in survival: 7.7 days
  Trypanocidal activity, cures: 7/10
212 mg/kg, subcutaneous
  Increase in survival: 5.0 days
  Trypanocidal activity, cures: 3/5
